# Like-named read-outs stand apart in the source and are kept apart here.
# Assays:
# [1] = test system: T-cell proliferation (cells from the thymus of normal C3H mice); assay: comitogen-induced thymocyte proliferation procedure (LAF); format: cell-based; conditions: for inhibition at 0.0001 µM / inhibition at 0.001 µM / inhibition at 0.003 µM / inhibition at 0.01 µM / inhibition at 1 µM / IC50: Mus musculus, T-cell; for inhibition at 0.0001 µM: 0.1 nM (so in the source); for inhibition at 0.001 µM: 1 nM; for inhibition at 0.003 µM: 3 nM; for inhibition at 0.01 µM: 10 nM; for ratio compared to rapamycin: >1 = greater inhibition than rapamycin
# Protocol: Immunosuppressive activity for a representative compound of this invention was evaluated in an in vitro standard pharmacological test procedure to measure the inhibition of lymphocyte proliferation (LAF).
# The comitogen-induced thymocyte proliferation procedure (LAF) was used as an in vitro measure of the immunosuppressive effects of representative compounds. Briefly, cells from the thymus of normal C3H mice are cultured for 72 hours with PHA and IL-1 and pulsed with tritiated thymidine during the last six hours. Cells are cultured with and without various concentrations of rapamycin, cyclosporin A, or test compound. Cells are harvested and incorporated radioactivity is determined. Inhibition of lymphoproliferation is assessed as percent change in counts per minute from non-drug treated controls. For each compound evaluated, rapamycin was also evaluated for the purpose of comparison. An IC50 was obtained for each test compound as well as for rapamycin. […] The results are also expressed as a ratio compared to rapamycin. A positive ratio indicates immunosuppressive activity. […] Calculation of the ratio is shown below. [formula]
# Streptavidin = assay: BIAcore binding of the compound of Example 3 to streptavidin conjugated matrix; conditions: 2.5 mM injected
# FKBP12 = assay: Fluorescent Polarization Immunoassay (FPIA), tracer with FKBP12; format: binding
# Text: (§1) The hybridoma cell line in P4G1 was cloned by limiting dilution and is designated as hybridoma cell line, RAP-42-OVAF2 #1hc-. The hybridoma cell line, RAP-42-OVAF2 #1hc, was deposited under the terms of the Budapest Treaty with the American Type Culture Collection (ATCC) of 12301 Parklawn Drive, Rockville, Md., 20852, U.S.A., on Mar. 10, 1994, and was granted accession number HB 11568. […] The ring opened rapamycin-specific antibody, designated as RAP-42-OVAF2 #1MoAb, was isolated and purified using conventional methodology.
# [2] = Fluorescent Polarization Immunoassay (FPIA), tracer background
# Text: as §1
# RAP-42-OVAF2#1MoAb [3] = assay: Fluorescent Polarization Immunoassay (FPIA), tracer with antibody; format: binding
# Text: as §1
# [4] = test system: rapamycin specific antibody; assay: competitive inhibition ELISA, binding of the compound of Example 3 to rapamycin specific antibody (Table 2); conditions: for OD: compound of Example 3 0.17 μM, 492 nm
# Protocol: The compound of Example 3 was used as a representative compound of this invention. Microtiter plates (Immulon I) were coated overnight with 100 μl of goat anti-mouse antibody (10 μg/ml in 10 mM potassium phosphate buffer, pH 7.2) at 4° C. The plates were flicked and blocked with 100 μl of 1% bovine sera albumin in phosphate buffered saline overnight at 4° C. After flicking and washing the plates three times with 0.2×PBS containing 0.02% Triton X-100 and 0.004% thimerosal, rapamycin specific antibody (100 μl of 1 μg/ml) was added to each well and incubated at room temperature for 1-4 hour. After flicking and washing the plates three times with 0.2×PBS containing 0.02% Triton X- 100 and 0.004% thimerosal, the compound of Example 3 (100 μl, 0.17 μM) in the presence or absence of various concentrations of rapamycin was added and incubated for 1 hour. After flicking and washing the plates three times with 0.2×PBS containing 0.02% Triton X-100 and 0.004% thimerosal, streptavidin conjugated to horseradish peroxidase (100 μl, 0.2 μg/ml) was incubated at room temperature for 1 hour in the dark. After flicking and washing the plates three times with 0.2×PBS containing 0.02% Triton X-100 and 0.004% thimerosal, OPD substrate was added and the plates were incubated covered for 15 min. at room temperature in the dark. The optical density was read on a spectrophotometer at 492 nm.
# IgE-like antibodies = conditions: Martel et al.; cited from earlier work
# [5] = test system: experimental allergic encephalomyelitis model; conditions: model for multiple sclerosis; Martel et al.; cited from earlier work
# [6] = molecular target: glutathione S-transferase-FK506 binding protein (GST-FKBP) (Homo sapiens, UniProt P62942); assay: Rapamycin Competitive Binding Assay using the Compound of Example 3, receptor based (Table 3); conditions: compound of Example 3 50 ng/ml, 450 nm
# glutathione S-transferase-FK506 binding protein (GST-FKBP), sequence (P62942 2-108): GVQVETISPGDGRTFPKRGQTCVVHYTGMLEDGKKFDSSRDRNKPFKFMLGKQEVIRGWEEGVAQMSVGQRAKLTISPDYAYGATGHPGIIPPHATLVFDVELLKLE
# Protocol: The following is an example of the use of the compounds of this invention in a receptor based assay to measure rapamycin levels using a rapamycin-binding protein and the compound of Example 3 as the ligand. Wells of microtiter plates were coated with 0.5 μg/well of the fusion protein, glutathione S-transferase-FK506 binding protein (GST-FKBP), in 100 μl of 0.02M HEPES buffer, pH 7.4. Plates were incubated overnight at 4° C. Plates were washed 3 × with HEPES buffer. Well surfaces were blocked by the addition of 1% bovine serum albumin fraction V (BSA) in HEPES buffer ([…]). Plates were incubated for 1 hour at ambient temperature. Plates were washed three times. Various concentrations of rapamycin were added to the compound of Example 3 (50 ng/ml) and 100 μl of the solutions were added to wells in triplicate. After incubation of the plates at ambient temperature followed by washing the plates with HEPES buffer, 100 μl of diluted avidin-horseradish peroxidase conjugate was added to each well. After incubation for 1 hour at ambient temperature and washing five times, 100 μl of tetramethylbenzidine substrate was added to each well. The plates were incubated for 30 minutes in the dark at ambient temperature. The reactions were stopped and the optical density was read at 450 nm.
# RAP-42-OVAF2#1MoAb [7] = assay: FPIA competition of the binding between the antibody and A3 tracer
# Text: as §1
# adjuvant arthritis model = conditions: model for rheumatoid arthritis; Martel et al.; cited from earlier work
compound,measurement,setting,value
"CO[C@H]1C[C@@H]2CC[C@@H](C)[C@@](O)(O2)C(=O)C(=O)N2CCCC[C@H]2C(=O)O[C@H]([C@H](C)C[C@@H]2CC[C@@H](OC(=O)CNC(=O)CCCC[C@@H]3SC[C@@H]4NC(=O)N[C@@H]43)[C@H](OC)C2)CC(=O)[C@H](C)/C=C(\C)[C@@H](O)[C@@H](OC)C(=O)[C@H](C)C[C@H](C)/C=C/C=C/C=C/1C [Example 3, Rapamycin 42-ester with glycylbiotin]",inhibition at 0.0001 µM,[1]; first evaluation,98%
same,inhibition at 0.001 µM,[1]; first evaluation,46%
same,inhibition at 0.003 µM,[1]; first evaluation,65%
same,inhibition at 0.01 µM,[1]; first evaluation,95%
same,inhibition at 1 µM,[1]; first evaluation,99%
same,IC50,"[1]; first evaluation, read-out: IC50",2.8 nM
same,inhibition at 0.0001 µM,[1]; second evaluation,94%
same,inhibition at 0.001 µM,[1]; second evaluation,16%
same,inhibition at 0.003 µM,[1]; second evaluation,51%
same,inhibition at 0.01 µM,[1]; second evaluation,88%
same,inhibition at 1 µM,[1]; second evaluation,96%
same,IC50,"[1]; second evaluation, read-out: IC50",1.3 nM
same,ratio compared to rapamycin,[1]; first evaluation,2.39
same,ratio compared to rapamycin,[1]; second evaluation,0.63
same,resonance units bound,Streptavidin,115 resonance units
CO[C@H]1C[C@@H]2CC[C@@H](C)[C@@](O)(O2)C(=O)C(=O)N2CCCC[C@H]2C(=O)O[C@H]([C@H](C)C[C@@H]2CC[C@@H](OC(=O)CCC(=O)NCC(=O)Nc3ccc4c(c3)C(=O)OC43c4ccc(O)cc4Oc4cc(O)ccc43)[C@H](OC)C2)CC(=O)[C@H](C)/C=C(\C)[C@@H](O)[C@@H](OC)C(=O)[C@H](C)C[C@H](C)/C=C/C=C/C=C/1C [rapamycin 42-ester with succinic acid conjugate with 5-glycinylfluoresceinamine],polarization,"FKBP12; tracer 10 nM, after addition of an excess of FKBP12",195 mP
same,polarization,"[2]; tracer alone, 10 nM, 100 mM sodium phosphate pH 7.5",77 mP
same,polarization,"RAP-42-OVAF2#1MoAb [3]; tracer 10 nM, excess of RAP-42-OVAF2#1MoAb",84 mP
CO[C@H]1C[C@@H]2CC[C@@H](C)[C@@](O)(O2)C(=O)C(=O)N2CCCC[C@H]2C(=O)O[C@H]([C@H](C)C[C@@H]2CC[C@@H](O)[C@H](OC)C2)CC(=O)[C@H](C)/C=C(\C)[C@@H](O)[C@@H](OC)C(=O)[C@H](C)C[C@H](C)/C=C/C=C/C=C/1C [rapamycin],% INHIBITION of binding of the compound of Example 3,[4]; rapamycin 0.005 μM,6.6%
same,OD,[4]; rapamycin 0.005 μM,1.866
same,% INHIBITION of binding of the compound of Example 3,[4]; rapamycin 0.05 μM,7.8%
same,OD,[4]; rapamycin 0.05 μM,1.842
same,% INHIBITION of binding of the compound of Example 3,[4]; rapamycin 0.5 μM,30.1%
same,OD,[4]; rapamycin 0.5 μM,1.419
same,% INHIBITION of binding of the compound of Example 3,[4]; rapamycin 5 μM,67.6%
same,OD,[4]; rapamycin 5 μM,.705
same,inhibition of formation of IgE-like antibodies,IgE-like antibodies,effectively inhibited
same,IC50,[1]; first evaluation,6.7 nM
same,IC50,[1]; second evaluation,0.8 nM
same,effect in experimental allergic encephalomyelitis model,[5],effective
same,Optical Density,[6]; rapamycin 1.5625 ng/ml,2.6160
same,Optical Density,[6]; rapamycin 3.125 ng/ml,2.3040
same,Optical Density,[6]; rapamycin 6.25 ng/ml,2.0557
same,Optical Density,[6]; rapamycin 12.5 ng/ml,1.3913
same,Optical Density,[6]; rapamycin 25 ng/ml,0.7473
same,Optical Density,[6]; rapamycin 50 ng/ml,0.3573
same,Optical Density,[6]; rapamycin 100 ng/ml,0.2433
same,Optical Density,[6]; rapamycin 200 ng/ml,0.2177
same,"polarization, competition of the binding between the antibody and A3 tracer",RAP-42-OVAF2#1MoAb [7]; after 38 min,121 mP
same,"polarization, competition of the binding between the antibody and A3 tracer",RAP-42-OVAF2#1MoAb [7]; at 3 min,155 mP
same,effect in adjuvant arthritis model,adjuvant arthritis model,effective
CO[C@@H](C[C@@H]1CC[C@@H](C)[C@](O)(C(=O)C(=O)N2CCCC[C@H]2C(=O)O)O1)/C(C)=C/C=C/C=C/[C@@H](C)C[C@@H](C)C(=O)[C@H](OC)[C@H](O)/C(C)=C/[C@@H](C)C(=O)/C=C/[C@H](C)C[C@@H]1CC[C@@H](O)[C@H](OC)C1 [secorapamycin],"polarization, competition of the binding between the antibody and A3 tracer",RAP-42-OVAF2#1MoAb [7]; after 38 min,89 mP
same,"polarization, competition of the binding between the antibody and A3 tracer",RAP-42-OVAF2#1MoAb [7]; at 3 min,105 mP
secorapamycin 42-ester with succinic acid conjugate with 5-fluoresceinamine [Example A3],polarization reading,FKBP12; A3 in presence of FKBP12 (background levels),79 mP
same,background reading (polarization),[2]; A3 tracer alone,75 mP
same,polarization reading,RAP-42-OVAF2#1MoAb [3]; A3 in presence of RAP-42-OVAF2#1MoAb,178 mP
